Usually IC50 stands for the concentration needed to halve the response being measured. Higher therefore signals weaker potency.

This experiment has as its target DNA polymerase β (Bos taurus, UniProt Q27958). Briefly: [methyl-3H]TTP incorporation into activated DNA, DE81 paper disc. The experiment is classed as biochemical.

As for `Nc1ccn([C@@H]2O[C@H](COP(=O)(O)OP(=O)(O)OP(=O)(O)O)[C@@H](O)C2(F)F)c(=O)n1` [dFdCTP], the 50% inhibitory concentration (IC50) worked out at 450 µM.
Then `Nc1ccn([C@H]2CC[C@@H](COP(=O)(O)OP(=O)(O)OP(=O)(O)O)O2)c(=O)n1` [ddCTP], with 240 µM.

Source of the values: publication PMC5926742 (Japanese Journal of Cancer Research : Gann, 2001).
